Assay results from patent US7618977B2, “Method of treating dermatitis comprising administering a chymase inhibitor” (Asubio Pharma Co., Ltd., priority 2000, dated 2009).
Where a name gives a salt, the structure may show the parent alone.

Legend:
eosinophils of the skin = assay: Increase in eosinophils of skin in hapten-induced mouse dermatitis model; type: in vivo, C3H/HeN mice; settings: 48 hours after sixth application of hapten
Protocol: The effect of a chymase inhibitor on the infiltration of eosinophils of the skin in the test of Example 10 was studied. That is, 48 hours after the sixth application of hapten, the ears of the mice were fixed with formalin and paraffin sections prepared in accordance with an ordinary method. The sections were stained with Fast Green (Fluka), known to specifically stain eosinophils (Current Protocol in Immunology, Wiley Interscience). That is, the deparaffined sections were fixed with 100% methanol for 1 minute, then stained for 30 minutes by 0.2% Fast Green dissolved in 70% ethanol. The eosinophils were measured by randomly selecting 10 fields (×400) under a microscope and counting the number of cells per area using an ocular grid. As the chymase inhibitor, the Compound 18 and Compound 34 were used and =administered by the method described in Example 10. Further, a group treated with an acetone/olive oil solution (3:1) not containing DNFB was used as the non-induced control group, while a group treated with DNFB and administered HPC/saline instead of the test substance was used as the control for the group administered the chymase inhibitor.

mast cells of skin = assay: Increase in number of mast cells of skin in hapten-induced mouse dermatitis model; type: in vivo, C3H/HeN mice; settings: 48 hours after sixth application of hapten
Protocol: The effect of a chymase inhibitor on the increase in mast cells of skin in the test of Example 10 was studied. In the same way as Example 11, the ears of the mice were fixed with formalin and paraffin sections prepared by an ordinary method 48 hours after the sixth application of hapten. The mast cells of the sections were stained by the Toluidine Blue method, then the number of mast cells were counted under a microscope (×400) for 10 fields per section. The density of mast cells of the skin was measured in accordance with the method of Kitagaki et al. (J. Invest. Dermatol. 105, 749, 1995). As the chymase inhibitor, use was made of Compound 18 and Compound 34. These were administered by the method described in Example 10. Further, a group treated with an acetone/olive oil solution (3:1) not containing DNFB was used as the non-induced control group, while a group treated with DNFB and administered HPC/saline instead of the test substance was used as the control for the group administered the chymase inhibitor.

[1] = tested on: human polymorphonuclear leukocytes (PMN); assay: Human chymase-induced migration of polymorphonuclear leukocytes, 48-well chemotaxis chamber; type: cell-based; settings: inhibitor in lower well, 1% dimethyl sulfoxide, 37° C. 1 hour
Protocol: In Example 6, it was shown that a remarkable infiltration of leukocytes is observed in late-phase reaction of human chymase-induced dermatitis. The effect of human chymase on the migration of polymorphonuclear leukocytes (PMN) in vitro was investigated for the purpose of investigating the mechanism of chymase-induced leukocyte infiltration. PMN was isolated by adding a ⅕th volume of 6% dextran solution to heparinized whole blood from normal healthy subject and allowing it to stand at 37° C. for 1 hour, then layering the supernatent on Ficoll-Paque (Amersham Pharmacia Biotech) and centrifuging it. Further, the migration of PMN was measured by using a 48-well chemotaxis chamber (NeuroProbe Co.) by the textbook method (Seibutsu Yakkagaku Jikken Koza (Biopharmacology Experiment Lectures) 12, 315, Hirokawa Shoten). That is, a medium containing human chymase (200 to 800 nM) or fMLP (N-formyl-L-methionyl-L-leucyl-L-phenylalanine, Sigma-Aldrich Co.) (10 nM) was placed in the lower well of the chamber. The upper well and the lower well were separated by a polycarbonate filter (pore size 5 μm) (NeuroProbe Co.) PMN (1×10^6/ml) was added to the upper well and cultured at 37° C. for 1 hour, then the filter was fixed, stained and the number of cells in the membrane were counted under a microscope (400×) (Seibutsu Yakkagaku Jikken Koza (Biopharmacology Experiment Lectures) 12, 315). For the cell staining, a hemacolor solution (Merck) was used. In this test, when investigating the effect of the chymase inhibitor, a chymase inhibitor (Compound 18 or Compound 34) was dissolved in dimethyl sulfoxide and added to the lower well of the chamber just before the addition of the human chymase. The concentration of the compound was adjusted so that the final concentration of the dimethyl sulfoxide became 1%.

natural onset dermatitis = assay: Natural onset dermatitis (NC/Nga) mice; type: in vivo; settings: 150 mg/kg/day in drinking water, 35 days
Text: NC/Nga mice were bred and raised in accordance with the methods described in previous reports (Progress in Medicine 19, 1201, 1999). Specifically, 5-week old NC/Nga mice obtained from Charles River Japan and raised under a specific pathogen free (SPF) environment were mixed with NC/Nga mice bred by the Faculty of Applied Biological Science of Hiroshima University starting from 6 weeks of age, kept until 15 weeks of age in a normal non-SPF environment, then used for the tests. The tests were conducted under non-SPF, conventional environment. The test substance (Compound 18) was mixed with the drinking water and administered for 35 consecutive days at 150 mg/kg/day (n=7), then an evaluation was conducted in accordance with the method described in previous reports (Progress in Medicine 19, 1201, 1999). That is, first, 35 days after the start of administration, the five items of (1) scratching behavior, (2) edema, (3) erythema and hemorrhaging, (4) depilation and ulceration, and (5) dryness were scored as 0 to 2 and the total found to judge the outer appearance of the skin. Next, the ears and skin of the back were fixed with formalin, embedded in paraffin, and histologically analyzed by staining the ear specimens by the hematoxylin and Eosin method, Toluidine Blue method, or Congo Red method (Stain Technol. 56, 323, 1981) and by staining the back skin specimens by the Toluidine Blue method or Congo Red method. Sections of the ear stained with Hematoxylin and Eosin were evaluated by judging the change in tissue in four scales of 0 to 3 for three items of (1) thickness of epidermis, (2) thickness of dermis, and (3) cellular infiltration and expressing as the total score. Further, the specimens stained with Toluidine Blue and stained with Congo Red were used for counting the mast cells and eosinophils. Specifically, the eosinophils of the back skin were counted in a ×400 field of a microscope, while the other cells were counted in a total of five ×200 fields and the totals expressed.

[2] = tested on: dermatitis induced by repeated application of hapten; assay: Mouse dermatitis model induced by repeated application of hapten (DNFB), ear thickness; type: in vivo, C3H/HeN mice; settings: five days a week
Protocol: Dermatitis was induced in accordance with an already reported method (J. Pharmacol. Exp. Ther. 283, 321, 1997) using dinitrofluorobenzene (DNFB) as hapten. That is, the right ears of eight-week old female C3H/HeN mice (Nippon Clare) (n=7) were painted with 0.15% DNFB (25 μl) dissolved in an acetone/olive oil (3:1) every seven days six times. When applying the hapten each time, the ear thickness was measured by a micrometer (Digimatic Indicator, Mitsutoyo Co.) immediately before the application and 1 hour, 6 hours, 24 hours, and 48 hours after the application so as to find the amount of increase from the ear thickness before the first application of hapten. Further, a group similarly treated with an acetone/olive oil solution (3:1) not containing DNFB was used as a control. Further, in a test separate from the above, the ears were cut off immediately before the third application of hapten, the chymase-like activity of the skin was measured in accordance with an already reported method (n=3), and this was compared with the activity of mice treated with an acetone/olive oil solution (3:1) not containing DNFB (n=2).
The effect of a test substance on dermatitis was investigated by inducing dermatitis in accordance with the method described in Example 9 (n=7) and measuring the ear thickness in the same way as in Example 9. As the test substance, three chymase inhibitors (Compound 18, Compound 34, and Compound 35) were used, while as the control, the steroid prednisolone (Nakarai Tesc Inc.) was used. Further, the test substance was suspended in saline containing 0.5% hydroxypropyl cellulose in the same way as in Example 3 (HPC/saline) and intraperitoneally administered in dosages of 10 mg/kg or 50 mg/kg once a day for five consecutive days a week until the end of the test; the first administration was performed immediately before the start of the hapten application. Further, a group similarly treated with DNFB and administered HPC/saline instead of the test substance was used as a control group.

[3] = tested on: Ascaris-induced mouse biphasic dermatitis; assay: Ascaris-induced mouse biphasic dermatitis model, ear edema; type: in vivo, BALB/c mice; settings: 50 mg/kg intraperitoneal, 60 minutes before ascaris extract; p<0.01
Protocol: Ascaris-induced biphasic dermatitis was induced according to the method described previously (Folia Pharmacol. Jap. 112, 221, 1998). That is, 8-week old BALB/c mice (Charles River Japan) were sensitized by intraperitoneal injection of 0.5 ml of a 1:1 mixture of ascaris extract (800 μg/ml, Cosmo Bio Co., Ltd.) and an alum saline suspension (16 mg/ml in saline). Two weeks after the sensitization, 10 μl of ascaris extract (1 mg/ml) was injected intradermally to the right ear of mice. The edema induced at the ear were evaluated immediately before intradermal injection of the ascaris extract (n=3) and 1 hour after (n=4), 2 hours after (n=4), 4 hours after (n=4), 6 hours after (n=4), 16 hours after (n=4), and 24 hours after injection (n=4), by weighing ear biopsy prepared with a punch (a diameter of 6 mm, Fukui Kiko Shokai) and measuring their weights. The edema (mg) was expressed as the difference in the weight of the ear punch biopsy between the right and the left ears of the same mouse. Dermatitis was induced in accordance with the method described in Example 2 and the ear edema was measured in the same way as in Example 2, 1 hour (n=6) and 16 hours (n=8) after the intradermal administration of ascaris extract to the ears to investigate the effects of the test substance on dermatitis. As the chymase inhibitor, Compound 34 was used. As the control drug, diphenhydrazine (antihistamine, Sigma) and prednisolone (steroid, Nakarai Tesc Co.) were used. Each drug under study was suspended in saline containing 0.5% hydroxypropyl cellulose and administered intraperiotoneally 60 minutes before intradermal administration of ascaris extract. A group of mice sensitized with ascaris extract and challenged by intradermal injection of saline was used as a control (n=3).

[4] = 10 mg/kg intraperitoneal once a day
[5] = 50 mg/kg intraperitoneal once a day, p<0.05 Dunnett's test

| suppression of human chymase-promoted migration of human PMN [1] | SMILES | rate of suppression of increase in eosinophils (eosinophils of the skin; 10 mg/kg intraperitoneal) [%] | rate of suppression of increase in eosinophils (eosinophils of the skin; 50 mg/kg intraperitoneal) [%] | rate of suppression of increase in density of mast cells (mast cells of skin; 10 mg/kg intraperitoneal) | rate of suppression of increase in density of mast cells (mast cells of skin; 50 mg/kg intraperitoneal) | number of mast cells of ear skin and back skin (natural onset dermatitis) | numbers of eosinophils of ear skin and back skin (natural onset dermatitis) | histological score of the ears (natural onset dermatitis; p<0.05 Mann-Whitney) | dermatitis score (clinical skin score) (natural onset dermatitis; vs control group, p<0.05 Mann-Whitney) | suppression of increase in ear thickness (skin reaction after hapten application) [2, 4] | suppression of increase in ear thickness (skin reaction after hapten application) [2, 5] | effect on increase in eosinophils (eosinophils of the skin; 10 and 50 mg/kg intraperitoneal) | rate of suppression, early-phase reaction (ear edema after 1 hour) [3] | rate of suppression, late-phase reaction (ear edema after 16 hours) [3] |
| --- | --- | --- | --- | --- | --- | --- | --- | --- | --- | --- | --- | --- | --- | --- |
| significantly suppressed | Nc1cc(S(=O)(=O)n2c(=O)[nH]c3cc(Cl)ccc3c2=O)ccc1C(=O)O [Compound 18, 4-[(7-chloro-2.4 (1H,3H)-quinazolinedion-3-yl)sulfonyl]anthranilic Acid Monosodium Salt] | 37.1 | 60.5 | about 57% | about 64% | significant suppressive effect | significantly suppressed | decreased significantly | decreased significantly | significant effect | significantly suppressed | – | – | – |
| significantly suppressed | CS(=O)(=O)O.Nc1cccc(S(=O)(=O)n2c(=O)[nH]c3cc(Cl)ccc3c2=O)c1 [Compound 34, 3-(3-aminobenzenesulfonyl)-7-chloro-2,4-(1H,3H)quinazolinedion Methanesulfonic Acid Salt] | – | – | about 37% | about 51% | – | – | – | – | significant suppressive effect | significantly suppressed | no statistically significant difference | about 41% | about 45% |
